The values below come from EP4471049A1 (Zealand Pharma A/S, priority 2023, dated 2024).

The nature of series [1]: Peptide stability in simulated intestinal fluid (SIF). Format: in vitro ADME. The procedure, abridged: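 Peptides were incubated at 37 °C with gentle shaking in pH 6.8 potassium phosphate SIF containing porcine pancreatin (10 g/L). Supernatants were analysed by LC-HRMS. Percent remaining at each timepoint, including 4 h, was calculated relative to time zero from absolute peak areas.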

Series [2] deals with IL-23 mediated STAT3 signalling (Homo sapiens, UniProt Q5VWK5). Nature of the series: Functional inhibition of IL-23 mediated STAT3 signalling (phospho-STAT3 Tyr705 MSD, DB cells). Format: cell-based. Conditions: Example 2 (Tables 2-1 to 2-4), read-out: IC50 (pSTAT3). Here is the method: The ability of compounds to inhibit IL-23 mediated signalling was determined in the human-derived DB cell line (CRL-2289) (hereafter referred to as DB cells), which endogenously expresses the human IL-23R and human IL-12R β1 subunits. Upon binding of IL-23, the IL-23R forms a heterodimer signalling complex together with IL-12R β1, which through the JAK2/STAT3 pathway promotes phosphorylation of STAT3 to form phospho-STAT3. In the assay, the functional antagonism of IL-23 mediated phospho-STAT3 formation in DB cells by the compound is quantified using reagents capable of measuring the phosphorylation state of Tyr705 of STAT3 in the form of a phospho-STAT3 (Tyr705) MSD (Meso Scale Discovery) kit.
[…]. For compounds tested in this assay, the response was normalized relative to control values to calculate the IC50 and maximal inhibitory response from a concentration response curve of the compound in presence of a fixed concentration of human IL-23.
The assay procedure was as follows. DB cells were maintained in growth medium consisting of RPMI-1640 [Invitrogen 61870-010] supplemented with 10% V/V Foetal Bovine Serum (FBS) [(heat inactivated), Invitrogen 10270-106], and 1% V/V Penicillin-Streptomycin (Pen-Strep) Solution [Invitrogen 15140]. On the day of assay, cells were resuspended in Assay buffer consisting of RPMI-1640 [Invitrogen 61870-010] supplemented with 0.1 % w/V BSA [Sigma-Aldrich A9430] to a density of 7.5x10^6 cells/mL. Compounds to be tested for inhibition of hIL-23 mediated signalling were serially diluted in Assay buffer to 3X the final concentration. A solution of hIL-23 corresponding to 3X the EC80 of hIL-23 (1.7 nM) was also prepared in Assay buffer. To initiate the assay, 20 µL of DB cell suspension (corresponding to 150.000 cells/well) was added to the wells of a 96-well V-bottom Polypropylene plate [Corning 3363] followed by addition of 3X 20 µL of the diluted test compounds to separate wells. Following preincubation of the DB cells with inhibitor for 15 min in a cell incubator (37 °C, 5% CO2), 20 µL of the prepared 3X the EC80 of hIL-23 solution was added to each well and incubated for 90 min in a cell incubator (37 °C, 5% CO2). For some wells buffer only or IL-23 only corresponding to the EC80 was added to obtain readouts needed for normalization. To terminate the assay, the plate was spun at 1000 G for 5 min to pellet cells, the supernatant removed using an 8-channel manual pipette, and then added 50 µL/well Complete Lysis Buffer from the MSD STAT3 kit (Cat# K150SVD, Mesoscale) to the cell pellet. To completely lyse cells to release phospho-STAT3 for detection, the plate was shaken for 10 min at room temperature (500 rpm) sealed with aluminium foil and placed at -80 °C for a minimum of 15 min. Detection of the phospho-STAT3 level in the cell lysate from the individual wells was determined using the MSD STAT3 kit (Cat# K150SVD, Mesoscale) and read on a Meso QuickPlex SQ 120 plate reader (Mesoscale).
For data analysis raw data counts from the Meso QuickPlex SQ 120 plate reader were normalized relative to the response by the EC80 of hIL-23 alone (no compound added) and the buffer level. Compound potency (IC50) and maximal inhibitory response (% inhibition) were estimated by computer-aided curve fitting using a 4-parameter logistic (4PL) non-linear model. […]. Typically compounds with a low IC50 are desired. Typically compounds capable of completely inhibiting the IL23-induced response are desired. […]. Table 3-2: hIL-23 (pSTAT3) antagonist IC50 and % inhibition data

pIC50: −log10 of the molar value.

Chain of IL-23 mediated STAT3 signalling (Q5VWK5 24-629 limits assumed): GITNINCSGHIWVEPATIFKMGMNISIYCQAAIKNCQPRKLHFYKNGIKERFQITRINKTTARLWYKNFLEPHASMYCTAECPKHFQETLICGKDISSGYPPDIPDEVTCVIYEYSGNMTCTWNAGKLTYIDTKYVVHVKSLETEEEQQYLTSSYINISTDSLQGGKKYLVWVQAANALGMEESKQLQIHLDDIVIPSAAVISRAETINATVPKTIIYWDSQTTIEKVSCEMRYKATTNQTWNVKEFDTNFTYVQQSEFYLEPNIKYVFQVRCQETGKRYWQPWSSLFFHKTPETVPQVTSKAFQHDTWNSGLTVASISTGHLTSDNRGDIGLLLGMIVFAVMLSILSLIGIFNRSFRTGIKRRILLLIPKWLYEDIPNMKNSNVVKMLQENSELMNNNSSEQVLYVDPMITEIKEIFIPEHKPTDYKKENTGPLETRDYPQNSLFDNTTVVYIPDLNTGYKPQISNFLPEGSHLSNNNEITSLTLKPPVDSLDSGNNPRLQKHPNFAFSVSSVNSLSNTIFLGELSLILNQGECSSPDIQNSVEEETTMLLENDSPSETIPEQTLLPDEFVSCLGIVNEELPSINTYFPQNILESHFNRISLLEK

As for `CC(C)C[C@]1(C)NC(=O)[C@H](Cc2ccc3ccccc3c2)NC(=O)[C@H](Cc2ccc(OCCN)cc2)NC(=O)[C@@H]2CCNC(=O)CC[C@H](NC(=O)[C@H](CO)NC(=O)Cc3ccc(cc3)CNC(=O)CC[C@@H](C(=O)N[C@@H](CCN)C(=O)N[C@H](Cc3c[nH]cn3)C(N)=O)NC1=O)C(=O)N[C@@H](Cc1c[nH]c3ccccc13)C(=O)N[C@@H](CCC(N)=O)C(=O)N2` [Compound 13, [4-Aminomethyl-phenylacetyl](1c)*SE(2c)WQ[Dab](2c)[Y(2-aminoethoxy)][2-Nal][2-Me-Leu]E(1c)[Dab][{d}H]-[NH2]], in series [1] (4 h, 37 °C, pH 6.8, porcine pancreatin 10 g/L, 10 µM), the “SIF (% remaining 4 h)” value was 56%. Further, the remaining at 4 h, 10 µM in series [1] (pig, simulated intestinal fluid (SIF) with porcine pancreatin, pH 6.8, Example 2 (Tables 2-1 to 2-4), intact peptide remaining after 4 h, read-out: SIF (% after 4 h)) is 56%. In addition, the pIC50 in series [2] is 8.17.

For orientation: pIC50 means the negative decadic logarithm of the IC50, by convention in mol/L.
